These are literature values, as cited in patent US20060251720A1, “Localized controlled absorption of statins in the gastrointestinal tract for achieving high blood levels of statins” (priority 2004, published 2006).

The target in series [1] is T1, HMG-CoA reductase (Homo sapiens, UniProt P04035).
T1 sequence (P04035 1-888): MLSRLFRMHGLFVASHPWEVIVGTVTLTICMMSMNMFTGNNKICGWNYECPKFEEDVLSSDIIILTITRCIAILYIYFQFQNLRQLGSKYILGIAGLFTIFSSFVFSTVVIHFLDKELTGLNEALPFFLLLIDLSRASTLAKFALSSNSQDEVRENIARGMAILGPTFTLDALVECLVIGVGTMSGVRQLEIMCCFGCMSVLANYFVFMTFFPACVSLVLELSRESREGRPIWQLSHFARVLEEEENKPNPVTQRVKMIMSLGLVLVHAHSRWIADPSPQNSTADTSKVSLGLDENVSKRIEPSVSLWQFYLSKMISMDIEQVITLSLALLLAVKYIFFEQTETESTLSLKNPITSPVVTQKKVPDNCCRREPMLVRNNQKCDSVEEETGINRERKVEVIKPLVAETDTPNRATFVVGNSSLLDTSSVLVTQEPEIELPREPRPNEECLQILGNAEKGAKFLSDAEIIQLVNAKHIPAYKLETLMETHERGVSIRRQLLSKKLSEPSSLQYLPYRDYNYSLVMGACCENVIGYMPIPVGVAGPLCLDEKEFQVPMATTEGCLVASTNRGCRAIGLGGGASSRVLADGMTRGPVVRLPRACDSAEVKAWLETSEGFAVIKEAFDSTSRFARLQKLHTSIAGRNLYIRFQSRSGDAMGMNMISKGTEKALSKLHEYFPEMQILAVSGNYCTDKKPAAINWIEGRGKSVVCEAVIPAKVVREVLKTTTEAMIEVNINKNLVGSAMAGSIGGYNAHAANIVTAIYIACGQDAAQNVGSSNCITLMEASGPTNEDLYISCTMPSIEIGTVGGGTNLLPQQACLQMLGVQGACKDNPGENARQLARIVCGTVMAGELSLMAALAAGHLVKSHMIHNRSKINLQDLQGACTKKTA
To be noted: relative to the beta-hydroxy acid form taken as the drug.

In series [2] the test system is plasma proteins, primarily albumin.

Turning to `CCC(C)(C)C(=O)OC1CC(C)(O)C=C2C=CC(C)C(CCC3CC(O)CC(=O)O3)C21` (stereo not drawn) [6-beta-hydroxy simvastatin], the “HMG-CoA reductase activity retained” value in series [1] is around 50%.
Take `CCC(C)(C)C(=O)O[C@H]1C[C@@H](CO)C=C2C=C[C@H](C)[C@H](CC[C@@H]3C[C@@H](O)CC(=O)O3)[C@H]21` [6-beta-hydroxymethyl simvastatin]: in series [1], the “HMG-CoA reductase activity retained” value is “approximately 40%”.
For `CCC(C)(C)C(=O)O[C@H]1C[C@@H](C)C=C2C=C[C@H](C)[C@H](CC[C@@H]3C[C@@H](O)CC(=O)O3)[C@H]21` [simvastatin], the “bound to plasma proteins, primarily to albumin” value in series [2] is on record as “more than 95%”.
